The conditions of assay [1]: background statement; cited from earlier work.
In a further assay the target is T1, α4β2 nAChR's (Homo sapiens, UniProt P17787+P43681).
T1 construct: expressed in transfected cells
Put plainly: 86Rb+ efflux assay, agonist activity. The class given is cell-based. To be noted: read-out: Relative Emax (% of nicotine Emax) α4β2 nAChR's; 86Rb+ efflux; mean ± standard error of three experiments.

Assay [2] deals with rat α3β4 nAChRs (KXα3β4R2 cells) (Rattus norvegicus, UniProt P04757+P12392). Kind of assay: cell-based. Particulars: read-out: Relative Emax (% of nicotine Emax) α3β4 nAChR's.
The target in assay [3] is T2, α4β2 nAChR (Rattus norvegicus, UniProt P09483+P12390).
T2 construct: expressed in transfected cells
Put plainly: Competition binding with [3H]epibatidine, membrane homogenates of stably transfected cells. To be noted: Ki α3β4 divided by Ki α4β2.

Assay [4] addresses T3, α4β2 nAChR (Homo sapiens, UniProt P17787+P43681). To be noted: read-out: EC50 (partial agonist at α4β2 nAChR); reported in the literature; cited from earlier work.
Assay [5] addresses T3, α4β2 nAChR. To be noted: read-out: Ki (binding affinity); reported in the literature; cited from earlier work.

The values that follow come from patent publication US20100048606A1, “10-Substituted Cytisine Derivatives and Methods of Use Thereof” (Georgetown University Office of Technology Commercialization, priority 2006, published 2010).

SMILES strings stand for the structures.

On to `Clc1ccc(C2CC3CCC2N3)cn1` (racemic) [(±)-Epibatidine], for which, in assay [1], the Analgesic potency result was “approximately 500 times that of morphine”.
Consider `CN1CCCC1c1cccnc1` (single isomer, unassigned; (-)) [(−)-Nicotine, reference compound], for which the Emax (on α4β2 nAChR's; in assay [2]) was 100% throughout.
As for `O=c1cccc2n1C[C@@H]1CNC[C@H]2C1` [(−)-Cytisine (4), (−)-Cytisine], the “Affinity ratio (α3β4/α4β2)” value at α4β2 nAChR [3] stood at 144. Moreover, the concentration giving a half-maximal response (EC50) (as a rule, the concentration needed to bring the measured effect to its halfway point) at α4β2 nAChR [4] was approximately 1000 nM. Moreover, the Ki – broadly, a measure of affinity in units of concentration, obtained from inhibition or displacement – at α4β2 nAChR [5] was approximately 1 nM.
